Experiments:
α1G207Cβ2γ2 receptors = test system: T1, α1G207Cβ2γ2 receptors; experiment: Radioactive ligand binding; conditions: not shown
T1 construct: expressed in transfected cells; host or cells: HEK293 cells (ATCC CRL 1573), membranes
Experimental: (§1) cDNAs coding for the αx (x = 1, 2, 3, 6), β2, and γ2S subunits DNA (20 µg : 20 µg : 20 µg) per 9 cm diameter dish were transfected in human embryonic kidney (HEK) 293 cells (American Type of Culture Collection, MD, USA, CRL 1573) using the calcium phosphate precipitation technique. For α5 containing receptors β2 was replaced by β1. […] Culturing of cells and membrane preparation were done as described before.
(§2) The properties of the recombinant mutant receptors were only estimated. For this affinity estimate, membranes were re-suspended in phosphate buffer using a Teflon homogenizer. They were incubated in a total volume of 360 µl for 1 h on ice in the presence of [^3H]Ro15–1788 (78.6 Ci/mmol; PerkinElmer Life Sciences). The final protein concentration was 0.1–1 mg of protein/ml. Total binding was measured at 0.5 and 5 nM [^3H]Ro15–1788. Nonspecific binding was determined under the same condition but in the presence of 100 µM unlabeled Ro15–1788 and amounted to less than 10% of total binding, except for α2S206Cβ2γ2 and α5T208Cβ2γ2 where it amounted to 10–17%. Expression levels of α6β2γ2 receptors were estimated with [^3H]Ro15–4513. Membranes were collected by rapid vacuum filtration on GF/C filters. After three washing steps (3 sec each) with 5 ml of phosphate buffer, the filter-retained radioactivity was determined by liquid scintillation counting.

α2G207Cβ2γ2 receptors = test system: T2, α2G207Cβ2γ2 receptors; experiment: Radioactive ligand binding; conditions: not shown
T2 construct: expressed in transfected cells; host or cells: HEK293 cells (ATCC CRL 1573), membranes
Experimental: as §1, §2

[1] = test system: α5S209Cβ2γ2 GABAA receptor; experiment: Covalent reaction at the functional level (two-electrode voltage clamp, Xenopus oocytes); format: cell-based; conditions: 1 µM diazepam at GABA EC2–5, naive oocytes
Experimental: (§3) Capped cRNAs were synthesized (Ambion, Austin, TX, USA) from the linearized plasmids with a cytomegalovirus promotor (pCMVvectors) containing the different subunits, respectively. A poly-A tail of about 400 residues was added to each transcript using yeast poly- A polymerase (United States Biologicals, Cleveland, OH, USA). The concentration of the cRNA was quantified on a formaldehyde gel using Radiant Red stain (Bio-Rad) for visualization of the RNA. Known concentrations of RNA ladder (Invitrogen) were loaded as standard on the same gel. cRNAs were precipitated in ethanol/isoamylalcohol 19∶ 1, the dried pellet dissolved in water and stored at −80°C. cRNA mixtures were prepared from these stock solutions and stored at −80°C. Xenopus laevis oocytes were prepared, injected and defolliculated as described previously, [39]. They were injected with 50 nL of the cRNA solution containing wild type or mutated α1 or α2, α3, α5, α6 and wild type β2 and γ2 subunits at a concentration of 10 nM : 10 nM : 50 nM [40] and then incubated in modified Barth’s solution at +18°C for at least 24 h before the measurements.
(§4) Currents were measured using a modified two-electrode voltage clamp amplifier Oocyte clamp OC-725 (Warner Instruments) in combination with a XY-recorder (90% response time 0.1s) or digitized at 100 Hz using a PowerLab 2/20 (AD Instruments) using the computer programs Chart (ADInstruments GmbH, Spechbach, Germany). Tests with a model oocyte were performed to ensure linearity in the larger current range. The response was linear up to 15 µA.
(§5) Electrophysiological experiments were performed by using the two-electrode voltage clamp method at a holding potential of −80 mV. The perfusion medium contained 90 mM NaCl, 1 mM KCl, 1 mM MgCl2, 1 mM CaCl2, and 5 mM Na-HEPES (pH 7.4) and was applied by gravity flow 6 ml/min. The perfusion medium was applied through a glass capillary with an inner diameter of 1.35 mm, the mouth of which was placed about 0.4 mm from the surface of the oocyte. Allosteric modulation via the benzodiazepine site was measured at a GABA concentration eliciting 2–5% of the maximal GABA current amplitude. GABA was applied for 20 s alone or in combination with allosteric compound. 6 ml of the covalent reacting compound was applied to the oocyte and incubated for 3 min while stopping the flow of the perfusion medium. Modulation of GABA currents was expressed as (I(modulator + GABA)/IGABA –1) * 100%. The perfusion system was cleaned between drug applications by washing with DMSO to avoid contamination.

[2] = test system: α3T231Cβ2γ2 GABAA receptor; experiment: as above; format: cell-based; conditions: 1 µM diazepam at GABA EC2–5, naive oocytes
Experimental: as §3, §4, §5

[3] = test system: T3, α5T210Cβ2γ2 GABAA receptor; experiment: as above; format: cell-based; conditions: 1 µM diazepam at GABA EC2–5, naive oocytes
T3 construct: expressed in transfected cells; host or cells: Xenopus laevis oocytes (cRNA injection)
Experimental: as §3, §4, §5

[4] = test system: α3S230Cβ2γ2 GABAA receptor; experiment: as above; format: cell-based; conditions: 1 µM diazepam at GABA EC2–5, naive oocytes
Experimental: as §3, §4, §5

[5] = test system: α1S204Cβ2γ2 GABAA receptor; experiment: as above; format: cell-based; conditions: 1 µM diazepam at GABA EC2–5, naive oocytes
Experimental: as §3, §4, §5

[6] = test system: α5T208Cβ2γ2 GABAA receptor; experiment: as above; format: cell-based; conditions: 1 µM diazepam at GABA EC2–5, naive oocytes
Experimental: as §3, §4, §5

α6 containing receptors = test system: T4, α6 containing receptors; experiment: Functional modulation of GABA currents (Xenopus oocytes); format: cell-based; conditions: functional level
T4 construct: expressed in transfected cells; host or cells: Xenopus laevis oocytes (cRNA injection)
Experimental: as §3, with “Xenopus laevis oocytes were prepared, injected and defolliculated as described previously, [39]. They were injected with 50 nL of the cRNA solution containing wild type or mutated α1 or α2, α3, α5, α6 and wild type β2 and γ2 subunits at a concentration of 10 nM : 10 nM : 50 nM [40] and then incubated in modified Barth’s solution at +18°C for at least 24 h before the measurements.” left out
as §4, with “Tests with a model oocyte were performed to ensure linearity in the larger current range. The response was linear up to 15 µA.” left out
Electrophysiological experiments were performed by using the two-electrode voltage clamp method at a holding potential of −80 mV. […] Allosteric modulation via the benzodiazepine site was measured at a GABA concentration eliciting 2–5% of the maximal GABA current amplitude. […] Modulation of GABA currents was expressed as (I(modulator + GABA)/IGABA –1) * 100%. […]

α6T205Cβ2γ2 receptor = target: T5, α6T205Cβ2γ2 receptor (Rattus norvegicus, UniProt P18508+P30191, T224C); experiment: Affinity estimate with [^3H]Ro15–4513; format: binding; conditions: read-out: Estimated affinity
T5 construct: expressed in transfected cells; host or cells: HEK293 cells (ATCC CRL 1573), membranes
Experimental: as §1, §2

[7] = test system: α6N204Cβ2γ2 GABAA receptor; experiment: Covalent reaction at the functional level (two-electrode voltage clamp, Xenopus oocytes); format: cell-based; conditions: 1 µM Abecarnil at GABA EC2–5, naive oocytes
Experimental: as §3, §4, §5

[8] = test system: α6S203Cβ2γ2 GABAA receptor; experiment: as above; format: cell-based; conditions: 1 µM Abecarnil at GABA EC2–5, naive oocytes
Experimental: as §3, §4, §5

T5 sequence (P30191 20-453 T224C): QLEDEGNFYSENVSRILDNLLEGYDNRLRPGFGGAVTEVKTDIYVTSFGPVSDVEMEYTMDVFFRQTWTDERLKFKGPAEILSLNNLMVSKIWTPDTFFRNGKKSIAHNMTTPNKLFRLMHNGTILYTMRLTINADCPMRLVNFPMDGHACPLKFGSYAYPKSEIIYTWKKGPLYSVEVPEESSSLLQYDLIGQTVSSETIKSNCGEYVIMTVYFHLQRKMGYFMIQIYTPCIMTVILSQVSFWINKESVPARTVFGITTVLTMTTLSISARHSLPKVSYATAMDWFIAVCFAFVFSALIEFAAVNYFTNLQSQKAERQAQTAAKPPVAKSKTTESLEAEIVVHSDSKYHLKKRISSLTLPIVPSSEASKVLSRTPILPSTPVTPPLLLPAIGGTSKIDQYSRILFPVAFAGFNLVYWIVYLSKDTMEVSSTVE
T5 sequence (P63138 25-474 partner limits assumed): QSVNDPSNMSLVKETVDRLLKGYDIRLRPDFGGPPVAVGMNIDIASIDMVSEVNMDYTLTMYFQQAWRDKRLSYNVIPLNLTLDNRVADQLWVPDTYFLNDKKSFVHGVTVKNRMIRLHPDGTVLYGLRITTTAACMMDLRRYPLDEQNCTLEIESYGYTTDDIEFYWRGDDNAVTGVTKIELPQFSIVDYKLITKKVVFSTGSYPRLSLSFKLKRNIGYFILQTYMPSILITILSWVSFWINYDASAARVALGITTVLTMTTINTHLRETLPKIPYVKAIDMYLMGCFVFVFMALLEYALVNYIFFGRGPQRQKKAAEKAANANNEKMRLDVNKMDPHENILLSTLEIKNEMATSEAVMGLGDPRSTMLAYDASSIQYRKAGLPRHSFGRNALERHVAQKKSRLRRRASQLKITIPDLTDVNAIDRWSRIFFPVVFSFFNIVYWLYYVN
T5 sequence (P18508 39-466): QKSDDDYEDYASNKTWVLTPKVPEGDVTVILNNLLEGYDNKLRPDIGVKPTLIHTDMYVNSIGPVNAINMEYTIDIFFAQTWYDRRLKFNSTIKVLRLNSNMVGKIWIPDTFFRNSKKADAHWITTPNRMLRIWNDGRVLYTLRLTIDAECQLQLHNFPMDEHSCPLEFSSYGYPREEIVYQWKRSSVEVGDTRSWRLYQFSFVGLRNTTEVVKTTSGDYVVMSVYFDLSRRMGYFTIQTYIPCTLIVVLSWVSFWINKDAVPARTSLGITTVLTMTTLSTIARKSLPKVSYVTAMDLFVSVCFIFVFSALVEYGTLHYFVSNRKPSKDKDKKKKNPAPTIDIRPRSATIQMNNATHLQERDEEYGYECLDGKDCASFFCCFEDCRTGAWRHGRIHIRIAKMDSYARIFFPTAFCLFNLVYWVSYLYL

CN1C(=O)CN=C(c2ccccc2F)c2cc([N+](=O)[O-])ccc21 [[^3H]flunitrazepam, flunitrazepam]
High affinity binding (in words) (α1G207Cβ2γ2 receptors): did not confer to the expressed receptors high affinity
High affinity binding (in words) (α2G207Cβ2γ2 receptors): did not confer to the expressed receptors high affinity

CCOC(=O)c1ncn2c1CN(C)C(=O)c1cc(F)ccc1-2 [[^3H]Ro 15–1788]
High affinity binding (in words) (α1G207Cβ2γ2 receptors): did not confer to the expressed receptors high affinity
High affinity binding (in words) (α2G207Cβ2γ2 receptors): did not confer to the expressed receptors high affinity

CN1C(=O)CN=C(c2ccccc2)c2cc(Cl)ccc21 [DZ, diazepam, reference compound]
% allosteric modulation, DZ [1]: 103±3%
% allosteric modulation, DZ [2]: 88±45%
% allosteric modulation, DZ [3]: 82±14%
% allosteric modulation, DZ [4]: 149±44%
% allosteric modulation, DZ [5]: 126±9%
% allosteric modulation, DZ [6]: 129±38%
Response to diazepam (in words) (α6 containing receptors): did not respond

CCOC(=O)c1ncn2c1CN(C)C(=O)c1cc(N=[N+]=[N-])ccc1-2 [[^3H]Ro15–4513]
Kd (α6T205Cβ2γ2 receptor): 4 nM

COCc1c(C(=O)OC(C)C)ncc2[nH]c3ccc(OCc4ccccc4)cc3c12 [Abecarnil, reference compound]
% allosteric modulation, DZ (*1µM Abecarnil was used) [7]: 70±40 %
% allosteric modulation, DZ (*1µM Abecarnil was used) [8]: 50±20 %

From article PMC3407089, “Influence of GABAA Receptor α Subunit Isoforms on the Benzodiazepine Binding Site” (PLoS ONE, 2012)
